# Assay results taken from the SangsterLogP compilation.
# Test: method code SF, from DOI: 10.1021/jm00266a011, PMID: 4583365
# Settings: not given
row,Compound,logP
1,N#CCC(=O)NC(CO)C(O)c1ccc([N+](=O)[O-])cc1 (stereo not given),-0.22
2,CN(Cc1ccccc1)/N=N/c1nc[nH]c1C(N)=O,1.54

# Test: method code SF-AS, from DOI: 10.1021/jm00266a011, PMID: 4583365
# Settings: not given
row,logP,Compound
1,1.03,O=C(CI)N[C@H](CO)[C@H](O)c1ccc([N+](=O)[O-])cc1
2,2.17,O=C(N[C@H](CO)[C@H](O)c1ccc([N+](=O)[O-])cc1)C(Br)(Br)Br
3,1.07,O=C(NC(CO)C(O)c1ccc([N+](=O)[O-])cc1)C(F)(F)F (stereo not given)
4,1.52,O=C(Cc1ccccc1)NC(CO)C(O)c1ccc([N+](=O)[O-])cc1 (stereo not given)
5,1.47,N#CC(C(=O)NC(CO)C(O)c1ccc([N+](=O)[O-])cc1)c1ccccc1 (stereo not given)
6,1.71,CCC(CC)C(=O)N[C@H](CO)[C@H](O)c1ccc([N+](=O)[O-])cc1
7,0.87,CCCC(=O)NC(CO)C(O)c1ccc([N+](=O)[O-])cc1 (stereo not given)
8,1.36,O=C(N[C@H](CO)[C@H](O)c1ccc([N+](=O)[O-])cc1)C(Br)Br
9,0.98,CC(Cl)C(=O)NC(CO)C(O)c1ccc([N+](=O)[O-])cc1 (stereo not given)
10,0.88,CC(C)C(=O)N[C@H](CO)[C@H](O)c1ccc([N+](=O)[O-])cc1
11,0.59,O=C(CCl)NC(CO)C(O)c1ccc([N+](=O)[O-])cc1 (stereo not given)
12,0.42,O=C(N[C@H](CO)[C@H](O)c1ccc([N+](=O)[O-])cc1)C(F)F
13,1.87,O=C(N[C@H](CO)[C@H](O)c1ccc(Br)cc1)C(Cl)Cl
14,2.22,O=C(N[C@@H](CO)[C@@H](O)c1ccc(I)cc1)C(Cl)Cl (relative stereo)
15,3.22,CCCCCCCCN(C)/N=N/c1nc[nH]c1C(N)=O
16,0.94,O=C(NC(CO)C(O)c1ccccc1)C(Cl)Cl (stereo not given)
17,1.63,O=C(NC(CO)C(O)c1ccc([N+](=O)[O-])cc1)c1ccccc1 (stereo not given)
18,2.86,O=C(N[C@H](CO)[C@H](O)c1ccc(-c2ccccc2)cc1)C(Cl)Cl
19,1.97,O=C(NC(CO)C(O)c1ccc([N+](=O)[O-])cc1)C(Cl)(Cl)Cl (stereo not given)
20,1.29,N#Cc1ccc([C@@H](O)[C@@H](CO)NC(=O)C(Cl)Cl)cc1
21,-0.03,CC(=O)NC(CO)C(O)c1ccc([N+](=O)[O-])cc1 (stereo not given)

row,Compound,logP
1,O=C(CF)NC(CO)C(O)c1ccc([N+](=O)[O-])cc1 (stereo not given),0.15

# Same assay, conditions: pH 7.4
row,logD,Compound
1,1.33,CC(C)(C)C(=O)N[C@H](CO)[C@H](O)c1ccc([N+](=O)[O-])cc1
